From patent US10953100B2, “Compounds and therapeutic uses thereof” (priority 2015, dated 2021)

These molecules were tested against Anti-alpha galactosyl IgG antibody (assay: ELISA assay: streptavidin-captured biotin compound, binding of anti-alpha galactosyl IgG antibody). Conditions: geometric mean with standard error in brackets; streptavidin plate, anti-alpha galactosyl IgG 0.5 μg/mL; read-out: Concentration at half maximal binding.
Set-up: species or system human
Protocol: Compounds containing F (representing a carbohydrate molecule capable of binding to a human anti-alpha-galactosyl antibody) and L (as biotin) were assayed for binding at both ends of the compound using an enzyme-linked immunosorbent assay (ELISA). Streptavidin-coated plates captured biotin to the surface of the plate and the binding of anti-alpha galactosyl antibodies to the alpha-galactosyl moiety was reported by a secondary antibody labelled with HRP (Horse Radish Peroxidase).
Compounds were titrated 1.5 fold from a top dose of 50 nM in phosphate buffered saline (PBS) (Sigma D8537)+0.025% DMSO (Dimethyl Sulphoxide, Sigma D8418). Streptavidin immobilizer 96-well plates (nunc 436014) were coated with 100 μL of compound at room temperature for 2 hours shaking at 500 rpm. Plates were washed with 2×200 μL PBS-T (PBS with 0.05% Tween 20 (Sigma P9416)) and 1×200 μL PBS-T with a 5 minute incubation shaking at room temperature, prior to being blocked for 1 hour at room temperature with 1% Bovine Serum Albumin (BSA, Sigma A2153) in PBS-T. After removing the blocking buffer, 50 μL of Anti-alpha galactosyl IgG antibody (Anti-alpha-galactosyl antibody was purified from human IVIG (Gammagard) by affinity purification using an alpha-galactosyl-HSA (Human Serum Albumin) sepharose column by Rockland Immunochemicals Inc.) at 0.5 μg/mL in PBS-T+1% BSA and incubated shaking at room temperature for 1 hour.
Plates were washed 2×200 μL PBS-T and 3×200 μL PBS-T with a 5 minute incubation, shaking at room temperature before the addition of 50 μL 1:5000 Goat Anti-Human IgG-HRP (horseradish peroxidase) conjugate (Abcam ab97175). The plates were incubated shaking at room temperature for 1 hour before a final wash of 2×200 μL PBS-T and 3×200 μl PBS-T with a 5 minute incubation shaking at room temperature. 100 μL TMB buffer (3,3′,5,5′-tetramethylbenzidine, a chromogenic substrate for horseradish peroxidase) (Pierce 34021) was added to the plate and allowed to develop for 5-10 minutes before the samples were quenched with 50 μL 2M sulfuric acid (Sigma 258105). The absorbance was read at 450 nm on an Envision plate reader (Perkin Elmer). Results from wells (duplicate) were averaged and the 50% binding affinity calculated.
The concentration at which half-maximal binding is achieved is reported as a geometric mean with standard error in brackets. The number of independent experiments is also reported. In order to achieve a signal both ends of the molecule are required to bind (biotin to streptavidin and alpha-galactosyl to anti-alpha galactosyl antibodies) simultaneously.

Compound | EC50
CC(=O)N[C@H]1[C@H](OCCCNC(=O)CCCCC(=O)NCc2cccc(C(=O)NCCNC(=O)CCCC[C@@H]3SC[C@@H]4NC(=O)N[C@@H]43)c2)O[C@H](CO)[C@@H](O[C@@H]2O[C@H](CO)[C@H](O)[C@H](O[C@H]3O[C@H](CO)[C@H](O)[C@H](O)[C@H]3O)[C@H]2O)[C@@H]1O [Example 13, N^1-(3-(((2R,3R,4R,5S,6R)-3-Acetamido-5-(((2S,3R,4S,5S,6R)-3,5-dihydroxy-6-(hydroxymethyl)-4-(((2R,3R,4S,5R,6R)-3,4,5-trihydroxy-6-(hydroxymethyl)tetrahydro-2H-pyran-2-yl)oxy)tetrahydro-2H-pyran-2-yl)oxy)-4-hydroxy-6-(hydroxymethyl)tetrahydro-2H-pyran-2-yl)oxy)propyl)-N6-(3-((2-(5-((3aS,4S,6aR)-2-oxohexahydro-1H-thieno[3,4-d]imidazol-4-yl)pentanamido)ethyl)carbamoyl)benzyl)adipamide] | 37.3 nM
CC(=O)N[C@H]1[C@H](OCCCNC(=O)CCOCCOCCOCCOCCNC(=O)COc2ccc(-c3cccc(C(=O)NCCNC(=O)CCOCCOCCOCCOCCOCCOCCOCCOCCOCCOCCOCCOCCNC(=O)CCCC[C@@H]4SC[C@@H]5NC(=O)N[C@@H]54)c3)cc2)O[C@H](CO)[C@@H](O[C@@H]2O[C@H](CO)[C@H](O)[C@H](O[C@H]3O[C@H](CO)[C@H](O)[C@H](O)[C@H]3O)[C@H]2O)[C@@H]1O [Example 52] | 34.9 nM
CC(=O)N[C@H]1[C@H](OCCCNC(=O)COc2cccc(CNC(=O)CCCCC(=O)NCCNC(=O)CCCC[C@@H]3SC[C@@H]4NC(=O)N[C@@H]43)c2)O[C@H](CO)[C@@H](O[C@@H]2O[C@H](CO)[C@H](O)[C@H](O[C@H]3O[C@H](CO)[C@H](O)[C@H](O)[C@H]3O)[C@H]2O)[C@@H]1O [Example 12, N^1-(3-(2-((3-(((2R,3R,4R,5S,6R)-3-Acetamido-5-(((2S,3R,4S,5S,6R)-3,5-dihydroxy-6-(hydroxymethyl)-4-(((2R,3R,4S,5R,6R)-3,4,5-trihydroxy-6-(hydroxymethyl)tetrahydro-2H-pyran-2-yl)oxy)tetrahydro-2H-pyran-2-yl)oxy)-4-hydroxy-6-(hydroxymethyl)tetrahydro-2H-pyran-2-yl)oxy)propyl)amino)-2-oxoethoxy)benzyl)-N6-(2-(5-((3aS,4S,6aR)-2-oxohexahydro-1H-thieno[3,4-d]imidazol-4-yl)pentanamido)ethyl)adipamide] | 37.3 nM
CC(=O)NC1C(OCCCNC(=O)COc2cc(OCC(=O)NCCCOC3OC(CO)C(OC4OC(CO)C(O)C(OC5OC(CO)C(O)C(O)C5O)C4O)C(O)C3NC(C)=O)cc(C(=O)NCCNC(=O)CCOCCOCCOCCOCCOCCOCCOCCOCCOCCOCCOCCOCCNC(=O)CCCCC3SCC4NC(=O)NC43)c2)OC(CO)C(OC2OC(CO)C(O)C(OC3OC(CO)C(O)C(O)C3O)C2O)C1O [Example 6, 1-{5-[(3aS,4S,6aR)-2-Oxo-hexahydro-1H-thieno[3,4-d]imidazolidin-4-yl]pentanamido}-N-(2-{[3,5-bis({[(3-{[(2R,5S)-5-{[(2S,5S)-3,5-dihydroxy-6-(hydroxymethyl)-4-{[(2R,5R)-3,4,5-trihydroxy-6-(hydroxymethyl)oxan-2-yl]oxy}oxan-2-yl]oxy}-3-acetamido-4-hydroxy-6-(hydroxymethyl)oxan-2-yl]oxy}propyl)carbamoyl]methoxy})phenyl]formamido}ethyl)-3,6,9,12,15,18,21,24,27,30,33,36-dodecaoxanonatriacontan-39-amide] | 5.8 nM
CC(=O)NC1C(OCCCNC(=O)CCOCCOCCOCCOCCNC(=O)COc2cc(OCC(=O)NCCOCCOCCOCCOCCC(=O)NCCCOC3OC(CO)C(OC4OC(CO)C(O)C(OC5OC(CO)C(O)C(O)C5O)C4O)C(O)C3NC(C)=O)cc(-c3cc(OCC(=O)NCCOCCOCCOCCOCCC(=O)NCCCOC4OC(CO)C(OC5OC(CO)C(O)C(OC6OC(CO)C(O)C(O)C6O)C5O)C(O)C4NC(C)=O)cc(C(=O)NCCNC(=O)CCOCCOCCOCCOCCOCCOCCOCCOCCOCCOCCOCCOCCNC(=O)CCCCC4SCC5NC(=O)NC54)c3)c2)OC(CO)C(OC2OC(CO)C(O)C(OC3OC(CO)C(O)C(O)C3O)C2O)C1O (stereo not drawn) [Example 54] | 22.8 nM
CC(=O)N[C@H]1[C@H](OCCCNC(=O)CCOCCOCCOCCOCCOCCOCCOCCOCCOCCOCCOCCOCCNC(=O)COc2cccc(C(=O)NCCNC(=O)CCOCCOCCOCCOCCOCCOCCOCCOCCOCCOCCOCCOCCNC(=O)CCCC[C@@H]3SC[C@@H]4NC(=O)N[C@@H]43)c2)O[C@H](CO)[C@@H](O[C@@H]2O[C@H](CO)[C@H](O)[C@H](O[C@H]3O[C@H](CO)[C@H](O)[C@H](O)[C@H]3O)[C@H]2O)[C@@H]1O [Example 50] | 26.1 nM
CC(=O)NC1C(OCCCNC(=O)CCOCCOCCOCCOCCNC(=O)COc2cc(OCC(=O)NCCOCCOCCOCCOCCC(=O)NCCCOC3OC(CO)C(OC4OC(CO)C(O)C(OC5OC(CO)C(O)C(O)C5O)C4O)C(O)C3NC(C)=O)cc(-c3cc(OCC(=O)NCCOCCOCCOCCOCCC(=O)NCCCOC4OC(CO)C(OC5OC(CO)C(O)C(OC6OC(CO)C(O)C(O)C6O)C5O)C(O)C4NC(C)=O)cc(C(=O)NCCOCCOCCOCCOCCC(=O)NCCNC(=O)CCCCC4SCC5NC(=O)NC54)c3)c2)OC(CO)C(OC2OC(CO)C(O)C(OC3OC(CO)C(O)C(O)C3O)C2O)C1O (stereo not drawn) [Example 58] | 37.6 nM
CC(=O)N[C@H]1[C@H](OCCCNC(=O)COc2ccc(-c3cc(OCC(=O)NCCCO[C@@H]4O[C@H](CO)[C@@H](O[C@@H]5O[C@H](CO)[C@H](O)[C@H](O[C@H]6O[C@H](CO)[C@H](O)[C@H](O)[C@H]6O)[C@H]5O)[C@H](O)[C@H]4NC(C)=O)cc(C(=O)NCCNC(=O)CCCC[C@@H]4SC[C@@H]5NC(=O)N[C@@H]54)c3)cc2)O[C@H](CO)[C@@H](O[C@@H]2O[C@H](CO)[C@H](O)[C@H](O[C@H]3O[C@H](CO)[C@H](O)[C@H](O)[C@H]3O)[C@H]2O)[C@@H]1O [Example 7] | 16 nM
CC(=O)NC1C(OCCCNC(=O)CCOCCOCCOCCOCCNC(=O)COc2cc(OCC(=O)NCCOCCOCCOCCOCCC(=O)NCCCOC3OC(CO)C(OC4OC(CO)C(O)C(OC5OC(CO)C(O)C(O)C5O)C4O)C(O)C3NC(C)=O)cc(-c3cc(OCC(=O)NCCOCCOCCOCCOCCC(=O)NCCCOC4OC(CO)C(OC5OC(CO)C(O)C(OC6OC(CO)C(O)C(O)C6O)C5O)C(O)C4NC(C)=O)cc(C(=O)NCCNC(=O)CCCCC4SCC5NC(=O)NC54)c3)c2)OC(CO)C(OC2OC(CO)C(O)C(OC3OC(CO)C(O)C(O)C3O)C2O)C1O (stereo not drawn) [Example 18] | 6.7 nM
CC(=O)N[C@H]1[C@H](OCCCNC(=O)COc2cc(OCC(=O)NCCCO[C@@H]3O[C@H](CO)[C@@H](O[C@@H]4O[C@H](CO)[C@H](O)[C@H](O[C@H]5O[C@H](CO)[C@H](O)[C@H](O)[C@H]5O)[C@H]4O)[C@H](O)[C@H]3NC(C)=O)cc(C(=O)NCCNC(=O)CCCC[C@@H]3SC[C@@H]4NC(=O)N[C@@H]43)c2)O[C@H](CO)[C@@H](O[C@@H]2O[C@H](CO)[C@H](O)[C@H](O[C@H]3O[C@H](CO)[C@H](O)[C@H](O)[C@H]3O)[C@H]2O)[C@@H]1O [Example 5] | 9.1 nM
CC(=O)NC1C(OCCCNC(=O)CCOCCOCCOCCOCCOCCOCCOCCOCCOCCOCCOCCOCCNC(=O)COc2cc(OCC(=O)NCCOCCOCCOCCOCCOCCOCCOCCOCCOCCOCCOCCOCCC(=O)NCCCOC3OC(CO)C(OC4OC(CO)C(O)C(OC5OC(CO)C(O)C(O)C5O)C4O)C(O)C3NC(C)=O)cc(-c3cc(OCC(=O)NCCOCCOCCOCCOCCOCCOCCOCCOCCOCCOCCOCCOCCC(=O)NCCCOC4OC(CO)C(OC5OC(CO)C(O)C(OC6OC(CO)C(O)C(O)C6O)C5O)C(O)C4NC(C)=O)cc(C(=O)NCCNC(=O)CCCCC4SCC5NC(=O)NC54)c3)c2)OC(CO)C(OC2OC(CO)C(O)C(OC3OC(CO)C(O)C(O)C3O)C2O)C1O (stereo not drawn) [Example 56] | 16.3 nM
CC(=O)N[C@H]1[C@H](OCCCNC(=O)COc2cc(OCC(=O)NCCCO[C@@H]3O[C@H](CO)[C@@H](O[C@@H]4O[C@H](CO)[C@H](O)[C@H](O[C@H]5O[C@H](CO)[C@H](O)[C@H](O)[C@H]5O)[C@H]4O)[C@H](O)[C@H]3NC(C)=O)cc(-c3cccc(-c4cccc(C(=O)NCCNC(=O)CCCC[C@@H]5SC[C@@H]6NC(=O)N[C@@H]65)c4)c3)c2)O[C@H](CO)[C@@H](O[C@@H]2O[C@H](CO)[C@H](O)[C@H](O[C@H]3O[C@H](CO)[C@H](O)[C@H](O)[C@H]3O)[C@H]2O)[C@@H]1O [Example 61] | 29.9 nM
